Where two headings read alike, the source gives them in different places.
What was measured:
Experiment in all cases: biochemical
Set-up in all cases: Eurofins DiscoverX kinase panel, competitive binding assay at 1 uM, percent of DMSO control
Conditions in all cases: competitive binding, percent of DMSO control
PLK4 = target: T1, PLK4 (Homo sapiens, UniProt O00444)
T1 sequence (O00444 1-970): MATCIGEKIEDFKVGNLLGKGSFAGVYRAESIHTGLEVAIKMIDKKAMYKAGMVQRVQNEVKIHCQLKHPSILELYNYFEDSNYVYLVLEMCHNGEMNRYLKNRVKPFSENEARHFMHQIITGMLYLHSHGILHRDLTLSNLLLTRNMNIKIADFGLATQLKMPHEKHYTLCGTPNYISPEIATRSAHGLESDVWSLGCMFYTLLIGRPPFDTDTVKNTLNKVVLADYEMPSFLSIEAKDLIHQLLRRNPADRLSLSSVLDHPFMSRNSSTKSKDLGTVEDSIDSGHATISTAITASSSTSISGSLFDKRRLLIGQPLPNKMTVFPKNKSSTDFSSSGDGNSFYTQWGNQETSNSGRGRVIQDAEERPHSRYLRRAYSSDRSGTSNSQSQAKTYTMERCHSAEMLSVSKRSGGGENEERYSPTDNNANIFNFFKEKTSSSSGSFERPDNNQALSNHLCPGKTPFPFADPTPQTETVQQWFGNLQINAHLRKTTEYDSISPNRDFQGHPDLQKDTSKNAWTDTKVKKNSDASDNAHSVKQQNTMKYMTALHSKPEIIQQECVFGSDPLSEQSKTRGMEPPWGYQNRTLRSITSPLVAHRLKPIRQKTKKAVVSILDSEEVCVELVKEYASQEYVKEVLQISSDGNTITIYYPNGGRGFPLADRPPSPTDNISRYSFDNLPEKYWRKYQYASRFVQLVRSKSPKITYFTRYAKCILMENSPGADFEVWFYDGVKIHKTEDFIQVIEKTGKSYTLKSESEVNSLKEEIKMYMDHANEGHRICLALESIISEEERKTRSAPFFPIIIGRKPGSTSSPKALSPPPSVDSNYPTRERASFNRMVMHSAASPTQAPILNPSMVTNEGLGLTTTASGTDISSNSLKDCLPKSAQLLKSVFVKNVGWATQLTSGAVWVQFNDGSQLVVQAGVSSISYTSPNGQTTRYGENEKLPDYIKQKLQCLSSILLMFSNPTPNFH
Method: (§1) Extended Data Fig. 3 In vitro characterization of potent and selective KIF18A inhibitors. a, KIF18A compounds (1 µM) were assessed across a panel of kinases (n = 96) by a competitive binding assay. Graph presented as percentage of control (POC); dashed line indicates POC value of 30 (n = 1 experiment). b, Tubulin polymerization analysis. Profile of KIF18A compounds (10 µM) relative to DMSO, paclitaxel (5 µM, tubulin stabilizer), or nocodazole (5 µM, tubulin destabilizer). Graphs presented as tubulin fluorescence signal at 440 nm expressed as arbitrary units (a.u.) versus time (min) with area-under-the-curve (AUC) values (n = 1 or 3 independent experiments). c, Mitotic spindle image analysis. […] Representative images were captured with x40 objective (scale bar = 10 µm) (n = 1 experiment). d-f, KIF18A compound effects on HeLa cells. d, Cells were treated for 96 h with DMSO or KIF18A compounds at the indicated concentrations. KIF18A compound concentration-response profiles presented as count relative to the percentage of DMSO control (POC) with count EC50 values (n = 2 independent experiments in duplicate). e, KIF18A protein localization in cells after treatment for 6 hours with DMSO or AM-1882 (0.05 µM). Cells stained to detect DNA, KIF18A, and centrin-3. Representative images of mitotic cells (n = 3 per group) were captured with x60 objective (scale bar = 5 µm) and graphs of line scan measurements were obtained for DNA, KIF18A, and centrin-3 channels expressed as fluorescence intensity (a.u.) versus distance (µm) (n = 1 experiment). f, Mitotic cell fate imaging analysis. HeLa Kyoto cells co-expressing α-tubulin-EGFP and H2B-mCherry proteins released from a G1S block in media containing DMSO or AM-1882 (0.2 µM). Analysis was performed on cells entering the first mitosis (n = 40 cells per group). Graph presented as time in mitosis (h) versus mitotic cell fate, either complete cell division (CCD) or death in mitosis (DiM). Classified cells exiting mitosis by the number of daughter cells and cell death in […] We screened a small-molecule library of diverse compounds for selective inhibitors of KIF18A MT-ATPase motor activity. Two compound hits were discovered that phenocopied the effects of KIF18A KD in cells; these hits are structurally distinct from the KIF18A inhibitor BTB-1 (refs. [27],[28]). […] However, the potency of the KIF18A inhibitors was unaffected by varying ATP and MT concentrations (Extended Data Fig. 2d). This supports our proposed model in which KIF18A inhibitors occupy an allosteric pocket formed by motor helices α4 and α6 close to the motor MT-binding surface. To screen for potential off-target interactions with essential mitotic kinases, three of the KIF18A compounds were profiled against a large panel of kinases. […] We next investigated whether our KIF18A inhibitors affected tubulin polymerization in vitro in the absence of the KIF18A motor. All four KIF18A compounds had tubulin-polymerization profiles similar to that of the DMSO control and distinct from those of the paclitaxel (MT stabilizer) and nocodazole (MT destabilizer) co

WEE1 = WEE1 (Homo sapiens, UniProt P30291)
Chain of WEE1 (P30291 whole entry): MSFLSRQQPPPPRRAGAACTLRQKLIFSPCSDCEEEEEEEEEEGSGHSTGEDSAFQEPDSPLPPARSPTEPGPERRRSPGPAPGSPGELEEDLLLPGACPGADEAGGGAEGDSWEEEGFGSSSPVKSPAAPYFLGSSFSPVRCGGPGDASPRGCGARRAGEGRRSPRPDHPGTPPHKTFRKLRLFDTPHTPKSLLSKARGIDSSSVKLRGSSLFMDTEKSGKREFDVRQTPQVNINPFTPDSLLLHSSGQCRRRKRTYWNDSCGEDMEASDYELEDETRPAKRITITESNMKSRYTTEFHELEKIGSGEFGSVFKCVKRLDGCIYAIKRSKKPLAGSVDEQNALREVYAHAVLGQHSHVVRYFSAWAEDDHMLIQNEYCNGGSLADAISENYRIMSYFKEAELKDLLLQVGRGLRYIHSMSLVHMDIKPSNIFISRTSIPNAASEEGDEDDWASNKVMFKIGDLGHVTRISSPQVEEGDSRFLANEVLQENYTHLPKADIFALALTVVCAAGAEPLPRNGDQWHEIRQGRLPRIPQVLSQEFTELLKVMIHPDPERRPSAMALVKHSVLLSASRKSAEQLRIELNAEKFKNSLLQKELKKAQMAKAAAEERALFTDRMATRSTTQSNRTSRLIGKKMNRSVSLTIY
Method: as §1

Fyn = Fyn (Homo sapiens, UniProt P06241)
Chain of Fyn (P06241 whole entry): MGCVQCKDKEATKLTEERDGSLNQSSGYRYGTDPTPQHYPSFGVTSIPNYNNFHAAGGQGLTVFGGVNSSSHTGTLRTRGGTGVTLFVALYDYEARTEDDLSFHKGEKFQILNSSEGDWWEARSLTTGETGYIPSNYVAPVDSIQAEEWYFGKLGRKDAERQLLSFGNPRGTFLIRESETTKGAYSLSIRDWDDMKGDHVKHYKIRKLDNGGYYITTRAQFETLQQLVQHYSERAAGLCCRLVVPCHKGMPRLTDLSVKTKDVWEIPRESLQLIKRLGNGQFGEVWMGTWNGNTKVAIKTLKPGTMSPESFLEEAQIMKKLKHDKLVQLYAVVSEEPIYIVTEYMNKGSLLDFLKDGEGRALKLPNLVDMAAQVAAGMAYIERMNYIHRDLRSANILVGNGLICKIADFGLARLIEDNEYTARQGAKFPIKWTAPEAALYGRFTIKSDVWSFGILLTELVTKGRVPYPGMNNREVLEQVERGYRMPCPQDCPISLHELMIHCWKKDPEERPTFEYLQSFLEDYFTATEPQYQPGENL
Method: as §1

MAP3K9 = MAP3K9 (Homo sapiens, UniProt P80192)
Chain of MAP3K9 (P80192 whole entry): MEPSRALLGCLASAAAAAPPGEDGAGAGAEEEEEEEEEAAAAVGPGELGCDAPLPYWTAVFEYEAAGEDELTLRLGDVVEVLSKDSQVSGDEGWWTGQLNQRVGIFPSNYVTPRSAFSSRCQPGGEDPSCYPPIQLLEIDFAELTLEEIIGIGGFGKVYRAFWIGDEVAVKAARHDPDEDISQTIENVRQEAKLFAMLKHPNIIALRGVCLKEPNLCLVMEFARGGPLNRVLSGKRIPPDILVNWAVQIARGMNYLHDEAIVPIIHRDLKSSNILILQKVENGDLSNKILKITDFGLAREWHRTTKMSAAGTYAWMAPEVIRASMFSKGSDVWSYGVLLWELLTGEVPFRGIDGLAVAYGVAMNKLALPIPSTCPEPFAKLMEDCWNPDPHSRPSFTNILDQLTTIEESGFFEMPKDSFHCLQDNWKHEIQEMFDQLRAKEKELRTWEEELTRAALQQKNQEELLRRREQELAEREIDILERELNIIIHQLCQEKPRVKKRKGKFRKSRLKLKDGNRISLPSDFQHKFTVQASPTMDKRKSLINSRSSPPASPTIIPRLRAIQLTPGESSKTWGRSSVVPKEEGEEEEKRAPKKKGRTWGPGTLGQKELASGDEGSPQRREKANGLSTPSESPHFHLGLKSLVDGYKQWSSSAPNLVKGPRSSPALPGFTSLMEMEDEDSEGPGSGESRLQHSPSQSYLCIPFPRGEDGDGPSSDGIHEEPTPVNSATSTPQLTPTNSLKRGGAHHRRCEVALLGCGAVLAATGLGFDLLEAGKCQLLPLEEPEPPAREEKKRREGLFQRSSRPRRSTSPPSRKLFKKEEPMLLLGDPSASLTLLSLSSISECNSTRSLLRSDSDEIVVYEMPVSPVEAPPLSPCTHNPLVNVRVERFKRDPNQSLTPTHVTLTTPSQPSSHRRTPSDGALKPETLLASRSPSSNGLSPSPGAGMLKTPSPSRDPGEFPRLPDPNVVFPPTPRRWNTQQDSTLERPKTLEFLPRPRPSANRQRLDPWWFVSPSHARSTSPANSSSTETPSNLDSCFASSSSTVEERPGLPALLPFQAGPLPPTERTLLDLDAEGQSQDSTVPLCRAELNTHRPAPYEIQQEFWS
Method: as §1

bRAF = bRAF (Homo sapiens, UniProt P15056)
Chain of bRAF (P15056 whole entry): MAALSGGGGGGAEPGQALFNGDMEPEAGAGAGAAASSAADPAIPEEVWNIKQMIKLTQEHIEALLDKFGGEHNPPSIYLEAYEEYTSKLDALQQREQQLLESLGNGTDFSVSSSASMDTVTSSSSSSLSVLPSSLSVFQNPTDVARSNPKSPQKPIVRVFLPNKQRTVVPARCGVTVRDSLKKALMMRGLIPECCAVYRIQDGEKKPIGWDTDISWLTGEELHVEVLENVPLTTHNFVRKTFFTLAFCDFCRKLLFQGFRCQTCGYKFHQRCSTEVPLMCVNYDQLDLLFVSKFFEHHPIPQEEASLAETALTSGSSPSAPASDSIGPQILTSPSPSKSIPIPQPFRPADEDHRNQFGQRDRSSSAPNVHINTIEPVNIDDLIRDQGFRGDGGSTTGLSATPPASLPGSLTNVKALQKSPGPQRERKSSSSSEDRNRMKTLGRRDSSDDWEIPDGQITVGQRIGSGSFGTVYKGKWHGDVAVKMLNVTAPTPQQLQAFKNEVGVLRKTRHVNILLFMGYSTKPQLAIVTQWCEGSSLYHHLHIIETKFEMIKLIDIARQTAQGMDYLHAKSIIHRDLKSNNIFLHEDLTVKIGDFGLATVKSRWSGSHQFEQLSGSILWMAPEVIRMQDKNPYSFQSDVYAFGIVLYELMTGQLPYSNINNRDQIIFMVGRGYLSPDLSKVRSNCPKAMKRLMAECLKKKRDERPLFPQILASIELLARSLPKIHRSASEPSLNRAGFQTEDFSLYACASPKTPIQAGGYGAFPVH
Method: as §1

CDK2 = CDK2 (Homo sapiens, UniProt P24941)
Method: as §1

[1] = read-out: Kinome Profiling performed by Eurofins DiscoverX / AM-1882, 1.0 µM / POC
[2] = read-out: Kinome Profiling performed by Eurofins DiscoverX / AM-0277, 1.0 µM / POC
[3] = read-out: Kinome Profiling performed by Eurofins DiscoverX / AM-5308, 1.0 µM / POC

Compound: CC(C)(C)NS(=O)(=O)c1cccc(NC(=O)c2ccc(S(=O)(=O)NC(C)(C)C)cc2N2CCC3(CC2)CC3)c1 [AM-1882]
- remaining activity at 1 µM (PLK4; [1]): 93.5%
- remaining activity at 1 µM (WEE1; [1]): 50%
- remaining activity at 1 µM (Fyn; [1]): 85.5%
- remaining activity at 1 µM (MAP3K9; [1]): 100%
- remaining activity at 1 µM (bRAF; [1]): 94.5%
- remaining activity at 1 µM (CDK2; [1]): 100%

Compound: CC(C)(CO)Nc1ccc(C(=O)Nc2cccc(S(=O)(=O)C3CCCC3)c2)c(N2CCC3(CC2)CC3)n1 [AM-0277]
- remaining activity at 1 µM (PLK4; [2]): 100%
- remaining activity at 1 µM (WEE1; [2]): 100%
- remaining activity at 1 µM (Fyn; [2]): 100%
- remaining activity at 1 µM (MAP3K9; [2]): 100%
- remaining activity at 1 µM (bRAF; [2]): 100%
- remaining activity at 1 µM (CDK2; [2]): 97%

Compound: C[C@@H]1CN(c2cccc(NC(=O)c3ccc(NS(=O)(=O)CCO)cc3N3CCC4(CC3)CC4)n2)CCO1 [AM-5308]
- remaining activity at 1 µM (PLK4; [3]): 87.5%
- remaining activity at 1 µM (WEE1; [3]): 100%
- remaining activity at 1 µM (Fyn; [3]): 92%
- remaining activity at 1 µM (MAP3K9; [3]): 95%
- remaining activity at 1 µM (bRAF; [3]): 92.5%
- remaining activity at 1 µM (CDK2; [3]): 94.5%

Reference: PMC10824666 (Nature Cancer, 2023)
